One data set has as its system APAP overdose. The experiment in a line: Survival of mice after APAP overdose. Format: in vivo, C57 BL/6 mice. The settings on record: FIG. 10. As to the method: Studies were then performed where C57 BL/6 mice received APAP overdose of 500 mg/kg. NACA or NAC was administered (106 mg/kg) 1.5 hours post APAP and at every 12 hours thereafter until 72 hours. The APAP group had 6 mice and the NAC and NACA groups contained 4. Mice treated with NACA/APAP survived for 150 hours, while mice treated with APAP or NAC/APAP had 60% and 30% survival respectively (FIG. 10).

In data set [1] the test system is APAP-induced hepatotoxicity. Put plainly: Protective effects in APAP-induced hepatotoxicity (oxidative stress and organ injury markers). Format: in vivo, C57BL/6 mice. As to the method: Studies were then performed to evaluate the protective effects of NACA in APAP-induced hepatotoxicity using male C57BL/6 mice that were intraperitoneally injected with 400 mg/kg of APAP after 15 hours of fasting. The therapeutic potentials of NAC and NACA were compared by administering NAC/NACA (106 mg/kg) after 1.5 hours of APAP administration and sacrificing the mice 4 hours after the APAP administration. The GSH/GSSG ratio, a crucial antioxidant parameter, and malondialdehyde (MDA) levels were measured in liver tissue.
Alanine aminotransferase (ALT) and glutamate dehydrogenase levels were also measured in serum (FIG. 3). These are markers of livery injury.

`CC(=O)N[C@@H](CS)C(=O)O` [NAC, N-acetylcysteine]: the survival in the data set with APAP overdose (APAP 500 mg/kg, 106 mg/kg 1.5 hours post APAP and every 12 hours until 72 hours) was 30%.

Regarding `CC(=O)Nc1ccc(O)cc1` [APAP, N-acetyl-p-aminophenol], the “oxidative stress in a number of tissues” value in data set [1] (APAP administration) is recorded as “increases”. In addition, in data set [1] (APAP alone, FIG. 3), the “liver injury (serum ALT and glutamate dehydrogenase levels)” value is “causes liver injury”. Moreover, in data set [1] (APAP alone, FIG. 9), the “blood urea nitrogen (BUN)” value is reported as “increases” and the “serum creatine kinase (CK)” value is “increases”. Moreover, the survival with APAP overdose (APAP overdose of 500 mg/kg alone) turned out to be 60%.

The values above are taken from US20200069617A1, “USE OF N-ACETYLCYSTEINE AMIDE IN THE TREATMENT OF ACETAMINOPHEN OVERDOSE” (priority 2015, published 2020).
